Test results as given in patent US9358191B2, “Deodorant composition” (priority 2002, dated 2016).

Assay: Deodorizing effect on malodor gas, closed circulation system
Details: 1 mL on absorbent cotton, 2 hours of working
Method: Into a 4 L odorless bag, 4 L of air was included by means of an air pump. Each malodor gas (ammonia, trimethylamine, hydrogen sulfide, or methyl mercaptan) was injected thereinto by an injection syringe to regulate a gas concentration. The bag was set at a test apparatus of closed circulation system fitted with an air pump and the air pump was worked at an air amount of about 1000 mL/minute. One milliliter of the above deodorant composition was supported on an absorbent cotton (0.2 g) and the cotton was set at the discharging side of the air pump. After 2 hours of working, the remaining amount of the malodor gas in the system was measured using a dedicated gas detecting tube (Gastech Corporation) and a deodorization rate was calculated according to the following expression.
As a comparative example, an absorbent cotton impregnated with 1 mL of a 20 mM aqueous solution of gallic acid was set at the discharging side of the air pump, instead of the absorbent cotton on which the above deodorant composition was supported. Then, the test was conducted similarly and the deodorization rate was calculated.
Deodorization rate (%)=100×{1−(A/B)}
In the above expression, A means the measured concentration of the malodor components and B means the concentration of the malodor components measured in the control. The control is the case that an absorbent cotton was impregnated with 1 mL of water instead of 1 mL of the above deodorant composition.

Q: What does the source list for `O=C(O)c1cc(O)c(O)c(O)c1` [Gallic acid aqueous solution, gallic acid]?
A: Deodorization rate (Ammonia, initial concentration 60 ppm): 85.0%; Deodorization rate (Hydrogen sulfide, initial concentration 120 ppm): 5.0%; Deodorization rate (Methyl mercaptan, initial concentration 100 ppm): 0%; Deodorization rate (Trimethylamine, initial concentration 130 ppm): 70.0%
